Measurements reported in ChEMBL document CHEMBL1201862, “PubChem BioAssay data set” (2004).
Active and inactive are the calls of the source.

How the values were obtained:
Estrogen receptor = target: T1, Estrogen receptor (Homo sapiens, UniProt P03372); assay: blockers of SRC-3 recruitment to ERα – biochemical, ELISA, streptavidin-HRP readout, orthogonal assay, confirmation (AID 1079)
T1 sequence (P03372 whole entry): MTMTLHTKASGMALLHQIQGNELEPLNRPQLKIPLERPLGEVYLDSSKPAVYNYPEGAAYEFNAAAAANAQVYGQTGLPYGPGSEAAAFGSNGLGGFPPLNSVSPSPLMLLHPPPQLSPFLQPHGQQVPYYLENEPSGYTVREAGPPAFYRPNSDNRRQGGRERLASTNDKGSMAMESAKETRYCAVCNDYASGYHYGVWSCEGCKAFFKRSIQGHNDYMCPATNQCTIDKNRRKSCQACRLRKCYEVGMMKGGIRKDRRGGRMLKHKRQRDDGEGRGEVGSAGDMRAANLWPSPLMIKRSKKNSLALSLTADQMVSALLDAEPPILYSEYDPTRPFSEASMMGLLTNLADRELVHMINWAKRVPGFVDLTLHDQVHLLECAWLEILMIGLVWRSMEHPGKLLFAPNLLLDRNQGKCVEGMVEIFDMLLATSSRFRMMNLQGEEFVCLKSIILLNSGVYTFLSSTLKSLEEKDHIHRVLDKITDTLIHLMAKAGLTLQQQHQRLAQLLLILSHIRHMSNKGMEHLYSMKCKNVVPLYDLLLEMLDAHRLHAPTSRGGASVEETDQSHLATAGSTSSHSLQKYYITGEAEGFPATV

[1] = target: RNA-editing ligase 1, mitochondrial (Trypanosoma brucei brucei, UniProt P86926); assay: inhibition of trypanosome RNA editing ligase – biochemical, fluorescence, Trypanosoma brucei, dose response (AID 1117295); assay type: functional
Chain of RNA-editing ligase 1, mitochondrial (P86926 whole entry): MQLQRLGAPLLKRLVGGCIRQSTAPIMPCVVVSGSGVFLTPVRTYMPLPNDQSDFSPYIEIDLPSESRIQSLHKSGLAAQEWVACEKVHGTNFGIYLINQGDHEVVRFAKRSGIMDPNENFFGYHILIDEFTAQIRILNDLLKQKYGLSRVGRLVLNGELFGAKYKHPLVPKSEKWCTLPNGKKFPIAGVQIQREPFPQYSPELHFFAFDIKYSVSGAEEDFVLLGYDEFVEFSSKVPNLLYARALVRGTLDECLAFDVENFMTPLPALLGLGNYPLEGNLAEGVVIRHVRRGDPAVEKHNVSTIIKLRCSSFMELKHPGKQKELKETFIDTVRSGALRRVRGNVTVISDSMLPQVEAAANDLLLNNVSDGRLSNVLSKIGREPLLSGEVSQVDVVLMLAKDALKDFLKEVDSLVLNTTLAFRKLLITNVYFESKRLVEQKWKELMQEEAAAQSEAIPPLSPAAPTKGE

[2] = target: Melanin-concentrating hormone receptor 1 (Homo sapiens, UniProt Q99705); assay: Fluorescence-based counterscreen for antagonists of the G-protein coupled receptor 7 (GPR7): cell-based high throughput dose response assay to identify antagonists of the melanin-concentrating hormone receptor 1 (MCHR1).; assay type: functional
Chain of Melanin-concentrating hormone receptor 1 (Q99705 whole entry): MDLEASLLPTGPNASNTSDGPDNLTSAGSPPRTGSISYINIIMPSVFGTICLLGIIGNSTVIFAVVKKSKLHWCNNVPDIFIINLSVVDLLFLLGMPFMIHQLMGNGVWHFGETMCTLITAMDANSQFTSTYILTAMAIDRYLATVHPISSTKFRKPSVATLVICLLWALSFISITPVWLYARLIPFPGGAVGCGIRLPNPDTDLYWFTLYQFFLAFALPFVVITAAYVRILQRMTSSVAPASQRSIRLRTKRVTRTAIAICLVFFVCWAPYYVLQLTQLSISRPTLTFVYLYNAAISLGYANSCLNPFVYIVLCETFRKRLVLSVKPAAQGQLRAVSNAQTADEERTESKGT

[3] = target: Neurotensin receptor type 1 (Homo sapiens, UniProt P30989); assay type: functional;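 note: Image-based confirmatory dose-response assay measuring agonist activity at NTR1; NTR1-expressing U2OS osteosarcoma cells imaged for beta-arrestin GFP spot formation; agonist potency where compounds increase beta-arrestin recruitment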
Chain of Neurotensin receptor type 1 (P30989 whole entry): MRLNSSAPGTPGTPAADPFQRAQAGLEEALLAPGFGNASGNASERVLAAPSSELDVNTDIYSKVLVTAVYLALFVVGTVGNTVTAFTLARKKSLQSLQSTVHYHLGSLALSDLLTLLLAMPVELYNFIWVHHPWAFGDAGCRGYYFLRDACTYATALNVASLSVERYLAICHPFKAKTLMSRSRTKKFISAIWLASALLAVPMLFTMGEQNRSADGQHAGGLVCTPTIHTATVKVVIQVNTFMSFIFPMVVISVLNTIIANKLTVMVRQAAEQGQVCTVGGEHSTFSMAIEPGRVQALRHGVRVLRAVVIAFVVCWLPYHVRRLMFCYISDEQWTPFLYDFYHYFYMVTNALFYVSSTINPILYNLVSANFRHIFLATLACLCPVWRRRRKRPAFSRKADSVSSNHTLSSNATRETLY

[4] = target: T2, Alkaline phosphatase, tissue-nonspecific isozyme (Homo sapiens, UniProt P05186)
T2 sequence (P05186 whole entry): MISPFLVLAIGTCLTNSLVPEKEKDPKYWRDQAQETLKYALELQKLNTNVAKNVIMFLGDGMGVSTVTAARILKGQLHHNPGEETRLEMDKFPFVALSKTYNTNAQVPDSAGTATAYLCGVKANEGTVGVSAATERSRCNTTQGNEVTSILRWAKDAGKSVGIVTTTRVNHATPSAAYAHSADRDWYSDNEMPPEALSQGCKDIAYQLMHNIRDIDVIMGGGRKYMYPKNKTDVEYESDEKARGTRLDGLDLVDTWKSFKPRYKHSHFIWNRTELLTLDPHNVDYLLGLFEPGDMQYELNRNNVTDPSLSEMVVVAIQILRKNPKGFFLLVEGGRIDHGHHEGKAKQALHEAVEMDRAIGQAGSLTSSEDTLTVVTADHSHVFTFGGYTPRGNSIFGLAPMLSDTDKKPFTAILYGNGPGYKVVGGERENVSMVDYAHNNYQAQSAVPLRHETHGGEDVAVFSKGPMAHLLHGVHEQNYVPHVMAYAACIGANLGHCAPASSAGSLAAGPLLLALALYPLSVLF

Cytochrome P450 2C9 = Cytochrome P450 2C9 (Homo sapiens, UniProt P11712); conditions: Potency
Chain of Cytochrome P450 2C9 (P11712 whole entry): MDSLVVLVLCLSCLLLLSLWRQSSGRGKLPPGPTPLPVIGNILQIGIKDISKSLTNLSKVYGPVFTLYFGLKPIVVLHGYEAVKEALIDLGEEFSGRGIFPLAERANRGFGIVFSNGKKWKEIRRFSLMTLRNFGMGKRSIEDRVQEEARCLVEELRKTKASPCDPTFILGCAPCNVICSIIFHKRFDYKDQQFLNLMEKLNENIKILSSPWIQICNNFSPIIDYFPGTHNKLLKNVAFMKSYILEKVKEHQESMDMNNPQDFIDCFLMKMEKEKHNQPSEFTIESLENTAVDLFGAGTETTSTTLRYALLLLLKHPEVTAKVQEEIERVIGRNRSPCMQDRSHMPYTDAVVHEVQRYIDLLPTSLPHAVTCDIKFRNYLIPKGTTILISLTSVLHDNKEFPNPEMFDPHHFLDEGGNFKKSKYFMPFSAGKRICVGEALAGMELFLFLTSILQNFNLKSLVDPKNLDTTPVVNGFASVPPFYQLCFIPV

Cytochrome P450 3A4 = Cytochrome P450 3A4 (Homo sapiens, UniProt P08684); conditions: Potency;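 note: confirmatory qHTS run detecting inhibitors and substrates of CYP3A4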
Chain of Cytochrome P450 3A4 (P08684 whole entry): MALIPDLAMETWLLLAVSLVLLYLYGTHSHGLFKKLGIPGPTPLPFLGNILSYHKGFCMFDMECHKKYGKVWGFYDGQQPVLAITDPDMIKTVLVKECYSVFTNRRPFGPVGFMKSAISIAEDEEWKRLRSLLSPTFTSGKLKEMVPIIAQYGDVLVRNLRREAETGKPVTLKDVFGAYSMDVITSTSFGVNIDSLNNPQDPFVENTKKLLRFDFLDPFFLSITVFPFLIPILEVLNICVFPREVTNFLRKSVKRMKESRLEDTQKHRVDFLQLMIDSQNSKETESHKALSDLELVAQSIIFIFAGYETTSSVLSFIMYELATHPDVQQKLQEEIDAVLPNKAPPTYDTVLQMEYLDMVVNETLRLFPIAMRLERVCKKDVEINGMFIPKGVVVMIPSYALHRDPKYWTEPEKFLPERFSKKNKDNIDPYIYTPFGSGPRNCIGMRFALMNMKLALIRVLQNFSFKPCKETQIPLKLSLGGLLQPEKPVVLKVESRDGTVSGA

[5] = target: Mothers against decapentaplegic homolog 3 (Homo sapiens, UniProt P84022); assay: inhibitors of SMAD-driven TGF-beta signaling – dose response (AID 715); assay type: functional
Chain of Mothers against decapentaplegic homolog 3 (P84022 whole entry): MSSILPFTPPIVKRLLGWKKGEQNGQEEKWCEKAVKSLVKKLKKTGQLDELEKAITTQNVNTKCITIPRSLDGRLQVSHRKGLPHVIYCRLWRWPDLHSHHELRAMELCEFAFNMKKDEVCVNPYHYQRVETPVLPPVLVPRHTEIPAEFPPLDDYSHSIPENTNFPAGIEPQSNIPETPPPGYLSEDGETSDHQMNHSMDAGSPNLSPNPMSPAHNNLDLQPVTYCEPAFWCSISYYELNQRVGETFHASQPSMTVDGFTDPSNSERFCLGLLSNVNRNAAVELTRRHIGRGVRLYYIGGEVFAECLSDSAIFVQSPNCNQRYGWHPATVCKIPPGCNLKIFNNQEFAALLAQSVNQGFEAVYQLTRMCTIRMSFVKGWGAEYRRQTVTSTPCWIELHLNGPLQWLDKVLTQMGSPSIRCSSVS

Bcl-2-related protein A1 [6] = target: T3, Bcl-2-related protein A1 (Mus musculus, UniProt Q07440); assay: displacement of Bid BH3 peptide from Bfl-1 – biochemical, fluorescence polarization, FITC-Bid, mouse, primary screen (AID 432)
T3 sequence (Q07440 whole entry): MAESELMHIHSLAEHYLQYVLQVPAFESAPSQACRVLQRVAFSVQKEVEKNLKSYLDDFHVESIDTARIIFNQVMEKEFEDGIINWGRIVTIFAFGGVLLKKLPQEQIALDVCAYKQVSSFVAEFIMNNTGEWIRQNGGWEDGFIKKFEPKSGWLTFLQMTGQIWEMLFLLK

[7] = target: T4, Heat shock 70 kDa protein 1A (Homo sapiens, UniProt P0DMV8); assay: small-molecule inhibition of Hsp70 – biochemical, TR-FRET (AID 786)
T4 sequence (P0DMV8 whole entry): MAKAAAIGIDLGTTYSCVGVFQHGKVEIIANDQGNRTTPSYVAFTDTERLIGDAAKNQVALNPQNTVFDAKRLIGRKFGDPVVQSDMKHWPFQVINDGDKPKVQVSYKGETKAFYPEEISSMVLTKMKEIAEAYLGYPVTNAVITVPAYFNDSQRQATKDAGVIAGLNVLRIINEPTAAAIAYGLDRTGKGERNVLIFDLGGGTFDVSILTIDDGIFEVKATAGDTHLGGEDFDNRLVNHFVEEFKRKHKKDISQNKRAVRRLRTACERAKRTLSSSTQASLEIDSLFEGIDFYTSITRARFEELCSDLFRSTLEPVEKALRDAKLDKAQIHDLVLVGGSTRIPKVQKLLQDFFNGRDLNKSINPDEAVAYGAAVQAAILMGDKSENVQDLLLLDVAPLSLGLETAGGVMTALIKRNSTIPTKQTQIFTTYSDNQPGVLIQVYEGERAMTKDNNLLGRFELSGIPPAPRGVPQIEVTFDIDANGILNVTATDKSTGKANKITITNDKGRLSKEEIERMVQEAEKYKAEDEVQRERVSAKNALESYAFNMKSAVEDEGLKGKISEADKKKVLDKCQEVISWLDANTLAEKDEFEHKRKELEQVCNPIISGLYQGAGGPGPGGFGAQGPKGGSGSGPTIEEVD

Bcl-2-like protein 10 = target: T5, Bcl-2-like protein 10 (Homo sapiens, UniProt Q9HD36); assay: Bcl-B/TR3 peptide binding disruption – biochemical, fluorescence polarization, FITC-TR3 peptide, selectivity assay for Bfl-1 inhibitor project, primary screen (AID 748);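 note: fluorescence polarization from a fluorescein-labelled TR3 peptide binding purified Bcl-B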
T5 sequence (Q9HD36 whole entry): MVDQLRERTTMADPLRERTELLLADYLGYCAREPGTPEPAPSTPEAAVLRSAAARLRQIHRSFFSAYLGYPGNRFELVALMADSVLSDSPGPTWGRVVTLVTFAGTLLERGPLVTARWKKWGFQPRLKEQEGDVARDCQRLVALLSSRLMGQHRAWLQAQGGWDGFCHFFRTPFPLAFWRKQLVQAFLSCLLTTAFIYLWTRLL

[8] = target: T4, Heat shock 70 kDa protein 1A; assay: small molecules displacing fluorescent ligand from Hsp70 – biochemical, fluorescence polarization, primary screen (AID 583)
Bcl-2-related protein A1 [9] = target: T3, Bcl-2-related protein A1; assay: small-molecule antagonists of Bfl-1/BH3 interaction – biochemical, TR-FRET, mouse Bfl-1, confirmation (AID 621);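 note: TR-FRET binding of GST-Bfl-1 to FITC-labelled Bid peptide via terbium antibody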
Estrogen receptor beta = Estrogen receptor beta (Homo sapiens, UniProt Q92731); assay: blockers of SRC-3 recruitment to ERβ – biochemical, ELISA, streptavidin-HRP readout, orthogonal assay, confirmation (AID 1060)
Chain of Estrogen receptor beta (Q92731 whole entry): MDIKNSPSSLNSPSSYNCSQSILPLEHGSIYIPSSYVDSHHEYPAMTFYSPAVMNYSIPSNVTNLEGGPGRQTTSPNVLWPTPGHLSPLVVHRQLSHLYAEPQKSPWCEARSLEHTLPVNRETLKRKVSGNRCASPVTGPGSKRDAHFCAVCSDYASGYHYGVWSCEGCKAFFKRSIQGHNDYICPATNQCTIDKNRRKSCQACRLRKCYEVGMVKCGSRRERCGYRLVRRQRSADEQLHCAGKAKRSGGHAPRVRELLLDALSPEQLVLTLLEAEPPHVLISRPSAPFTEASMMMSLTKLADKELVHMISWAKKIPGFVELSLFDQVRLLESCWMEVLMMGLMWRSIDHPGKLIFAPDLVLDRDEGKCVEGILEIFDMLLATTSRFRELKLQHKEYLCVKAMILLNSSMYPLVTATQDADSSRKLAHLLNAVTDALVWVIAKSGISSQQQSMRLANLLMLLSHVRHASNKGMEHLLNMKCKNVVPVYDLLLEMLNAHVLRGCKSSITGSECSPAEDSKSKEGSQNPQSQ

[10] = Luminescence-based counterscreen assay for KLF5 inhibitors: dose response cell-based high throughput screening assay to identify cytotoxic compounds using the IEC-6 intestinal epithelial cell line. [Related pubchem assays: 1700 (Primary screen.), 1834 (Confirmation screen.), 1858 (Summary AID.), 1905 (Counterscreen.)]; assay type: functional
[11] = HEK-293T cell viability reduction – luminescence, B-cell screen hits, cytotoxicity control for BCR NF-kB inhibitor project, dose response (AID 489021); assay type: functional, cell-based;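 note: HEK-293T cells carrying an NF-kB luciferase reporter; cells exposed to compound for about 14 hours before viability readout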
Nonstructural protein 1 = Nonstructural protein 1 (Influenza A virus, UniProt Q194T2); assay type: functional, Influenza A virus (A/California/07/2009(H1N1))
Chain of Nonstructural protein 1 (Q194T2 whole entry): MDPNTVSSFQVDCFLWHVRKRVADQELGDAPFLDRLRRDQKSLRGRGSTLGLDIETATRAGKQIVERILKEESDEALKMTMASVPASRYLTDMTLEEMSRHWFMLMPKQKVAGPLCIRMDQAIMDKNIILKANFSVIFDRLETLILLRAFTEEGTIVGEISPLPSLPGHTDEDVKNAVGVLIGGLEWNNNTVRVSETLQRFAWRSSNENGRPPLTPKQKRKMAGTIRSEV

[12] = mitochondrial function rescue without frataxin homolog – Friedreich's ataxia, plus single-dose screen, dose response (AID 1465); assay type: functional;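 note: yeast depleted of Yfh1p frataxin homolog grown on glycerol needing respiration; WST-1 tetrazolium dye reduction as measure of cellular dehydrogenase metabolic activity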

O=C(CCCn1c(=S)[nH]c2ccccc2c1=O)N1CCN(c2ccccc2O)CC1
IC50 (Estrogen receptor): 0.07 µM (not active)

COCCNC1=N[C@@H](c2cccc(C(F)(F)F)c2)C(C(=O)OC)=C(C)N1Cc1ccccc1
IC50 [1]: > 96.6 µM (inactive)
IC50 [2]: 14.7 µM (not active)

CC(C)Cn1c(N)c(C(=O)CSc2cc(Cl)ccc2Cl)c(=O)n(C)c1=O
EC50 [3]: 16.5 µM (active)

Cc1ccc(N(C(=O)c2ccn[nH]2)C(C(=O)NC2CCCC2)c2cccs2)cc1 (stereo not drawn)
EC50 [4]: > 100 µM (not active)

OC1c2ccccc2-c2nc3ccccc3cc21 (stereo not drawn)
AC50 (Cytochrome P450 2C9): 25.1 µM (inconclusive)
AC50 (Cytochrome P450 3A4): 25.1 µM (inconclusive)

COc1cccc(C(=O)NC2CC3CCCC(C2)N3CC(=O)Nc2ccccc2)c1 (stereo not drawn)
IC50 [5]: 9.46 µM (active)
IC50 (Bcl-2-related protein A1 [6]): > 100 µM (not active)
IC50 [7]: 11.4 µM (active)
IC50 (Bcl-2-like protein 10): 73.6 µM (inactive)
IC50 [8]: 45.4 µM (active)
IC50 (Bcl-2-related protein A1 [9]): > 100 µM (not active)
IC50 (Estrogen receptor beta): 44.6 µM (not active)

Cc1ccc(/C=C2/SC(=S)N(CCCC(=O)Nc3ccc(O)cc3)C2=O)cc1
IC50 [10]: 14.1 µM (not active)
IC50 [11]: > 80 µM (inactive)

CC(C)(C)C1=CC(=O)C(N2CCOCC2)=CC1=O
IC50 (Nonstructural protein 1): > 100 µM (active)
EC50 [12]: > 100 µM (active)
